Test system: 242566-281-R-J2-PDC complex spheroid viability
Experiment: Anticancer human tumor 242566-281-R-J2-PDC patient-derived pancreatic carcinoma cell line growth inhibition [RAS]
Conditions: for IC50: curve of first compound; for viability, T/C: stronger effect = lower value; active means viability on the fitted dose curve at most 10% of control; inactive means the rest
In short: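 Agents were tested in combination matrices in half-log decrements from a top concentration at or near clinical Cmax (10 microM if undetermined). Targets were multi-cell spheroids of tumour lines plus HUVEC and MSC stromal cells.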
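Further: spheroids exposed to compound for 7 days before readout.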
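Wherever viability, T/C is given: 100% = DMSO vehicle control wells.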

CCc1c2c(nc3ccc(O)cc13)-c1cc3c(c(=O)n1C2)COC(=O)[C@]3(O)CC + C=CC(=O)N1CCN(c2nc(OCC3CCCN3C)nc3c(F)c(-c4nc(N)cc(C)c4C(F)(F)F)c(Cl)cc23)C(C)C1
34.5 nM: IC50 (second compound 0.1 µM)
48.8 nM: IC50 (second compound 0.0316 µM)
50.8 nM: IC50 (second compound 1 µM)
31.6 nM: IC50 (second compound 0.00316 µM)
34.8 nM: IC50 (second compound 0.01 µM)
40.9 nM: IC50 (second compound 0.316 µM)
inactive: viability, T/C (second compound 0.00316 µM, first compound 0.000949 µM) 94% | viability, T/C (second compound 0.00316 µM, first compound 0.003 µM) 121% | viability, T/C (second compound 0.00316 µM, first compound 0.00949 µM) 84.4% | viability, T/C (second compound 0.00316 µM, first compound 0.03 µM) 51% | viability, T/C (second compound 0.00316 µM, first compound 0.0949 µM) 27.1% | viability, T/C (second compound 0.00316 µM, first compound 0.3 µM) 13.1% | viability, T/C (second compound 0.01 µM, first compound 0.000949 µM) 103% | viability, T/C (second compound 0.01 µM, first compound 0.003 µM) 133% | viability, T/C (second compound 0.01 µM, first compound 0.00949 µM) 82.4% | viability, T/C (second compound 0.01 µM, first compound 0.03 µM) 56.1% | viability, T/C (second compound 0.01 µM, first compound 0.0949 µM) 26.9% | viability, T/C (second compound 0.01 µM, first compound 0.3 µM) 12.3% | viability, T/C (second compound 0.0316 µM, first compound 0.000949 µM) 112% | viability, T/C (second compound 0.0316 µM, first compound 0.003 µM) 132% | viability, T/C (second compound 0.0316 µM, first compound 0.00949 µM) 83.3% | viability, T/C (second compound 0.0316 µM, first compound 0.03 µM) 67.1% | viability, T/C (second compound 0.0316 µM, first compound 0.0949 µM) 32.3% | viability, T/C (second compound 0.0316 µM, first compound 0.3 µM) 11.8% | viability, T/C (second compound 0.1 µM, first compound 0.000949 µM) 111% | viability, T/C (second compound 0.1 µM, first compound 0.003 µM) 129% | viability, T/C (second compound 0.1 µM, first compound 0.00949 µM) 104% | viability, T/C (second compound 0.1 µM, first compound 0.03 µM) 54% | viability, T/C (second compound 0.1 µM, first compound 0.0949 µM) 23.1% | viability, T/C (second compound 0.1 µM, first compound 0.3 µM) 16% | viability, T/C (second compound 0.316 µM, first compound 0.000949 µM) 105% | viability, T/C (second compound 0.316 µM, first compound 0.003 µM) 137% | viability, T/C (second compound 0.316 µM, first compound 0.00949 µM) 77.1% | viability, T/C (second compound 0.316 µM, first compound 0.03 µM) 63.7% | viability, T/C (second compound 0.316 µM, first compound 0.0949 µM) 28.8% | viability, T/C (second compound 0.316 µM, first compound 0.3 µM) 14.7% | viability, T/C (second compound 1 µM, first compound 0.000949 µM) 104% | viability, T/C (second compound 1 µM, first compound 0.003 µM) 114% | viability, T/C (second compound 1 µM, first compound 0.00949 µM) 86.7% | viability, T/C (second compound 1 µM, first compound 0.03 µM) 66% | viability, T/C (second compound 1 µM, first compound 0.0949 µM) 32.7% | viability, T/C (second compound 1 µM, first compound 0.3 µM) 10.9%

Cc1nc(N2CCC3(CC2)COC(C)C3N)c(CO)nc1Sc1ccnc(N)c1Cl (stereo unspecified) + C=CC(=O)N1CCN(c2nc(OCC3CCCN3C)nc3c(F)c(-c4nc(N)cc(C)c4C(F)(F)F)c(Cl)cc23)C(C)C1
> 10000 nM: IC50 (second compound 0.00316 µM) | IC50 (second compound 0.01 µM) | IC50 (second compound 0.0316 µM) | IC50 (second compound 0.1 µM) | IC50 (second compound 0.316 µM) | IC50 (second compound 1 µM)
inactive: viability, T/C (second compound 0.00316 µM, first compound 0.0316 µM) 115% | viability, T/C (second compound 0.00316 µM, first compound 0.1 µM) 136% | viability, T/C (second compound 0.00316 µM, first compound 0.316 µM) 102% | viability, T/C (second compound 0.00316 µM, first compound 1 µM) 80.1% | viability, T/C (second compound 0.00316 µM, first compound 3.16 µM) 104% | viability, T/C (second compound 0.00316 µM, first compound 10 µM) 105% | viability, T/C (second compound 0.01 µM, first compound 0.0316 µM) 129% | viability, T/C (second compound 0.01 µM, first compound 0.1 µM) 120% | viability, T/C (second compound 0.01 µM, first compound 0.316 µM) 89.3% | viability, T/C (second compound 0.01 µM, first compound 1 µM) 70.8% | viability, T/C (second compound 0.01 µM, first compound 3.16 µM) 94% | viability, T/C (second compound 0.01 µM, first compound 10 µM) 116% | viability, T/C (second compound 0.0316 µM, first compound 0.0316 µM) 118% | viability, T/C (second compound 0.0316 µM, first compound 0.1 µM) 124% | viability, T/C (second compound 0.0316 µM, first compound 0.316 µM) 99.1% | viability, T/C (second compound 0.0316 µM, first compound 1 µM) 77.4% | viability, T/C (second compound 0.0316 µM, first compound 3.16 µM) 100% | viability, T/C (second compound 0.0316 µM, first compound 10 µM) 120% | viability, T/C (second compound 0.1 µM, first compound 0.0316 µM) 157% | viability, T/C (second compound 0.1 µM, first compound 0.1 µM) 119% | viability, T/C (second compound 0.1 µM, first compound 0.316 µM) 89.4% | viability, T/C (second compound 0.1 µM, first compound 1 µM) 84.6% | viability, T/C (second compound 0.1 µM, first compound 3.16 µM) 83.1% | viability, T/C (second compound 0.1 µM, first compound 10 µM) 113% | viability, T/C (second compound 0.316 µM, first compound 0.0316 µM) 132% | viability, T/C (second compound 0.316 µM, first compound 0.1 µM) 151% | viability, T/C (second compound 0.316 µM, first compound 0.316 µM) 96% | viability, T/C (second compound 0.316 µM, first compound 1 µM) 85% | viability, T/C (second compound 0.316 µM, first compound 3.16 µM) 102% | viability, T/C (second compound 0.316 µM, first compound 10 µM) 113% | viability, T/C (second compound 1 µM, first compound 0.0316 µM) 141% | viability, T/C (second compound 1 µM, first compound 0.1 µM) 130% | viability, T/C (second compound 1 µM, first compound 0.316 µM) 93.2% | viability, T/C (second compound 1 µM, first compound 1 µM) 85.7% | viability, T/C (second compound 1 µM, first compound 3.16 µM) 112% | viability, T/C (second compound 1 µM, first compound 10 µM) 113%

CC(C)NCC(C(=O)N1CCN(c2ncnc3c2C(C)CC3O)CC1)c1ccc(Cl)cc1 (stereo unspecified) + CCn1c(-c2cc(N3CCN(C)CC3)cnc2C(C)OC)c2c3cc(ccc31)-c1csc(n1)CC(NC(=O)C1CC1C)C(=O)N1CCCC(N1)C(=O)OCC(C)(C)C2
inactive: viability, T/C (second compound 0.000949 µM, first compound 0.0316 µM) 92.1% | viability, T/C (second compound 0.000949 µM, first compound 0.1 µM) 92.8% | viability, T/C (second compound 0.000949 µM, first compound 0.316 µM) 74.8% | viability, T/C (second compound 0.000949 µM, first compound 1 µM) 95.2% | viability, T/C (second compound 0.000949 µM, first compound 3.16 µM) 75.2% | viability, T/C (second compound 0.000949 µM, first compound 10 µM) 43.9% | viability, T/C (second compound 0.003 µM, first compound 0.0316 µM) 78% | viability, T/C (second compound 0.003 µM, first compound 0.1 µM) 70.3% | viability, T/C (second compound 0.003 µM, first compound 0.316 µM) 57.6% | viability, T/C (second compound 0.003 µM, first compound 1 µM) 64.8% | viability, T/C (second compound 0.003 µM, first compound 3.16 µM) 56.9% | viability, T/C (second compound 0.003 µM, first compound 10 µM) 28.4% | viability, T/C (second compound 0.00949 µM, first compound 0.0316 µM) 49.6% | viability, T/C (second compound 0.00949 µM, first compound 0.1 µM) 42.6% | viability, T/C (second compound 0.00949 µM, first compound 0.316 µM) 48.6% | viability, T/C (second compound 0.00949 µM, first compound 1 µM) 41.5% | viability, T/C (second compound 0.00949 µM, first compound 3.16 µM) 26% | viability, T/C (second compound 0.00949 µM, first compound 10 µM) 17.9% | viability, T/C (second compound 0.03 µM, first compound 0.0316 µM) 30.9% | viability, T/C (second compound 0.03 µM, first compound 0.1 µM) 31.8% | viability, T/C (second compound 0.03 µM, first compound 0.316 µM) 28.5% | viability, T/C (second compound 0.03 µM, first compound 1 µM) 27.1% | viability, T/C (second compound 0.03 µM, first compound 3.16 µM) 12% | viability, T/C (second compound 0.0949 µM, first compound 0.0316 µM) 23.8% | viability, T/C (second compound 0.0949 µM, first compound 0.1 µM) 22.7% | viability, T/C (second compound 0.0949 µM, first compound 0.316 µM) 22.1% | viability, T/C (second compound 0.0949 µM, first compound 1 µM) 20.8% | viability, T/C (second compound 0.0949 µM, first compound 3.16 µM) 7.71% | viability, T/C (second compound 0.3 µM, first compound 0.0316 µM) 19.9% | viability, T/C (second compound 0.3 µM, first compound 0.1 µM) 18% | viability, T/C (second compound 0.3 µM, first compound 0.316 µM) 16.7% | viability, T/C (second compound 0.3 µM, first compound 1 µM) 13.1%
7980 nM: IC50 (second compound 0.000949 µM)
3660 nM: IC50 (second compound 0.003 µM)
active: viability, T/C (second compound 0.03 µM, first compound 10 µM) 9.97% | viability, T/C (second compound 0.0949 µM, first compound 10 µM) 5.5% | viability, T/C (second compound 0.3 µM, first compound 3.16 µM) 6.93% | viability, T/C (second compound 0.3 µM, first compound 10 µM) 3.76%
< 31.6 nM: IC50 (second compound 0.00949 µM) | IC50 (second compound 0.03 µM) | IC50 (second compound 0.0949 µM) | IC50 (second compound 0.3 µM)

Source: PubChem BioAssay AID2060910 (Molecular Pharmacology Branch, DTP, NCI, 2025)
